Assay results published in the supplement of paper PMC10307832.

What was measured:
Test in all cases: relative viability (nuclei count vs DMSO), 5 days (fraction); higher = more cells survive
Sunitinib = compound: CCN(CC)CCNC(=O)c1c(C)[nH]c(/C=C2\C(=O)Nc3ccc(F)cc32)c1C [Sunitinib]
In short: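 Five library-drug doses spaced by √10 were pinned onto vehicle-anchored 1536-well plates of lung cancer cell lines that had been kept overnight at 37 °C. Cells went 5 days without medium change, then were fixed, permeabilised and Hoechst-stained together, imaged at 4× and counted by MetaXpress. Viability is the ratio of treated-well to vehicle-well nuclei, taken as a median over plates. Plates required control CV below 25% and at least one doubling.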

Sunitinib + Trametinib = compound: CCN(CC)CCNC(=O)c1c(C)[nH]c(/C=C2\C(=O)Nc3ccc(F)cc32)c1C [Sunitinib] + CC(=O)Nc1cccc(-n2c(=O)n(C3CC3)c(=O)c3c(Nc4ccc(I)cc4F)n(C)c(=O)c(C)c32)c1 [Trametinib] (partner 0.02 µM)
In short: (§1)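 Lung cancer cell lines were pin-tool dosed in 1536-well plates on the day after seeding, with either a lone drug or a fixed anchor-drug dose plus five library-drug doses (not always all listed) in √10 steps. Nuclei were counted on 4× images after 5 days. Relative viability is the ratio of treated-well to vehicle-well nuclei counts, with each value a median of duplicate plates.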

Sunitinib + Palbociclib = compound: CCN(CC)CCNC(=O)c1c(C)[nH]c(/C=C2\C(=O)Nc3ccc(F)cc32)c1C [Sunitinib] + CC(=O)c1c(C)c2cnc(Nc3ccc(N4CCNCC4)cn3)nc2n(C2CCCC2)c1=O [Palbociclib] (partner 0.5 µM)
In short: as §1

Sunitinib + Luminespib = compound: CCN(CC)CCNC(=O)c1c(C)[nH]c(/C=C2\C(=O)Nc3ccc(F)cc32)c1C [Sunitinib] + CCNC(=O)c1noc(-c2cc(C(C)C)c(O)cc2O)c1-c1ccc(CN2CCOCC2)cc1 [Luminespib] (partner 0.01 µM)
In short: as §1

Sunitinib + OSI-027 = compound: CCN(CC)CCNC(=O)c1c(C)[nH]c(/C=C2\C(=O)Nc3ccc(F)cc32)c1C [Sunitinib] + COc1cccc2cc(-c3nc([C@H]4CC[C@H](C(=O)O)CC4)n4ncnc(N)c34)[nH]c12 [OSI-027] (partner 0.5 µM)
In short: as §1

Sunitinib + Tozasertib = compound: CCN(CC)CCNC(=O)c1c(C)[nH]c(/C=C2\C(=O)Nc3ccc(F)cc32)c1C [Sunitinib] + Cc1cc(Nc2cc(N3CCN(C)CC3)nc(Sc3ccc(NC(=O)C4CC4)cc3)n2)n[nH]1 [Tozasertib] (partner 0.1 µM)
In short: as §1

Sunitinib + Dasatinib = compound: CCN(CC)CCNC(=O)c1c(C)[nH]c(/C=C2\C(=O)Nc3ccc(F)cc32)c1C [Sunitinib] + Cc1nc(Nc2ncc(C(=O)Nc3c(C)cccc3Cl)s2)cc(N2CCN(CCO)CC2)n1 [Dasatinib] (partner 0.075 µM)
In short: as §1

Sunitinib + Phenformin = compound: CCN(CC)CCNC(=O)c1c(C)[nH]c(/C=C2\C(=O)Nc3ccc(F)cc32)c1C [Sunitinib] + N=C(N)NC(=N)NCCc1ccccc1 [Phenformin] (partner 250 µM)
In short: as §1

Sunitinib + AZD7762 = compound: CCN(CC)CCNC(=O)c1c(C)[nH]c(/C=C2\C(=O)Nc3ccc(F)cc32)c1C [Sunitinib] + NC(=O)Nc1cc(-c2cccc(F)c2)sc1C(=O)N[C@H]1CCCNC1 [AZD7762] (partner 0.2 µM)
In short: as §1

Sunitinib + Pemetrexed = compound: CCN(CC)CCNC(=O)c1c(C)[nH]c(/C=C2\C(=O)Nc3ccc(F)cc32)c1C [Sunitinib] + Nc1nc2[nH]cc(CCc3ccc(C(=O)N[C@@H](CCC(=O)O)C(=O)O)cc3)c2c(=O)[nH]1 [Pemetrexed] (partner 0.2 µM)
In short: as §1

Sunitinib + Decitabine = compound: CCN(CC)CCNC(=O)c1c(C)[nH]c(/C=C2\C(=O)Nc3ccc(F)cc32)c1C [Sunitinib] + Nc1ncn([C@H]2C[C@H](O)[C@@H](CO)O2)c(=O)n1 [Decitabine] (partner 2 µM)
In short: as §1

Sunitinib + Vorinostat = compound: CCN(CC)CCNC(=O)c1c(C)[nH]c(/C=C2\C(=O)Nc3ccc(F)cc32)c1C [Sunitinib] + O=C(CCCCCCC(=O)Nc1ccccc1)NO [Vorinostat] (partner 1 µM)
In short: as §1

Sunitinib + Olaparib = compound: CCN(CC)CCNC(=O)c1c(C)[nH]c(/C=C2\C(=O)Nc3ccc(F)cc32)c1C [Sunitinib] + O=C(c1cc(Cc2n[nH]c(=O)c3ccccc23)ccc1F)N1CCN(C(=O)C2CC2)CC1 [Olaparib] (partner 8 µM)
In short: as §1

Sunitinib + Foretinib = compound: CCN(CC)CCNC(=O)c1c(C)[nH]c(/C=C2\C(=O)Nc3ccc(F)cc32)c1C [Sunitinib] + COc1cc2c(Oc3ccc(NC(=O)C4(C(=O)Nc5ccc(F)cc5)CC4)cc3F)ccnc2cc1OCCCN1CCOCC1 [Foretinib] (partner 0.25 µM)
In short: as §1

## NCI-H522
Sunitinib; 0.02 µM
  relative viability: 0.927
Sunitinib; 0.06325 µM
  relative viability: 1.12
Sunitinib; 0.2 µM
  relative viability: 0.996
Sunitinib; 0.6325 µM
  relative viability: 0.962
Sunitinib; 2 µM
  relative viability: 0.999
Sunitinib + Trametinib; first compound 0.06325 µM
  relative viability: 0.672
Sunitinib + Trametinib; first compound 0.2 µM
  relative viability: 0.667
Sunitinib + Trametinib; first compound 0.6325 µM
  relative viability: 0.783
Sunitinib + Trametinib; first compound 2 µM
  relative viability: 0.794
Sunitinib + Palbociclib; first compound 0.02 µM
  relative viability: 0.961
Sunitinib + Palbociclib; first compound 0.06325 µM
  relative viability: 0.924
Sunitinib + Palbociclib; first compound 0.2 µM
  relative viability: 1.11
Sunitinib + Palbociclib; first compound 0.6325 µM
  relative viability: 1.03
Sunitinib + Palbociclib; first compound 2 µM
  relative viability: 0.909
Sunitinib + Luminespib; first compound 0.02 µM
  relative viability: 0.951
Sunitinib + Luminespib; first compound 0.06325 µM
  relative viability: 1.11
Sunitinib + Luminespib; first compound 0.2 µM
  relative viability: 1.21
Sunitinib + Luminespib; first compound 0.6325 µM
  relative viability: 1.14
Sunitinib + Luminespib; first compound 2 µM
  relative viability: 1.28
Sunitinib + OSI-027; first compound 0.02 µM
  relative viability: 0.648
Sunitinib + OSI-027; first compound 0.06325 µM
  relative viability: 0.831
Sunitinib + OSI-027; first compound 0.2 µM
  relative viability: 0.769
Sunitinib + OSI-027; first compound 0.6325 µM
  relative viability: 0.744
Sunitinib + OSI-027; first compound 2 µM
  relative viability: 0.69
Sunitinib + Tozasertib; first compound 0.02 µM
  relative viability: 0.6
Sunitinib + Tozasertib; first compound 0.06325 µM
  relative viability: 0.568
Sunitinib + Tozasertib; first compound 0.2 µM
  relative viability: 0.499
Sunitinib + Tozasertib; first compound 0.6325 µM
  relative viability: 0.521
Sunitinib + Tozasertib; first compound 2 µM
  relative viability: 0.682
Sunitinib + Dasatinib; first compound 0.02 µM
  relative viability: 0.731
Sunitinib + Dasatinib; first compound 0.06325 µM
  relative viability: 1.05
Sunitinib + Dasatinib; first compound 0.2 µM
  relative viability: 0.899
Sunitinib + Dasatinib; first compound 0.6325 µM
  relative viability: 1.04
Sunitinib + Dasatinib; first compound 2 µM
  relative viability: 0.923
Sunitinib + Phenformin; first compound 0.02 µM
  relative viability: 0.602
Sunitinib + Phenformin; first compound 0.06325 µM
  relative viability: 0.79
Sunitinib + Phenformin; first compound 0.2 µM
  relative viability: 0.659
Sunitinib + Phenformin; first compound 0.6325 µM
  relative viability: 0.673
Sunitinib + Phenformin; first compound 2 µM
  relative viability: 0.756
Sunitinib + AZD7762; first compound 0.02 µM
  relative viability: 0.839
Sunitinib + AZD7762; first compound 0.2 µM
  relative viability: 0.73
Sunitinib + AZD7762; first compound 0.6325 µM
  relative viability: 0.848
Sunitinib + AZD7762; first compound 2 µM
  relative viability: 0.942
Sunitinib + Pemetrexed; first compound 0.02 µM
  relative viability: 0.861
Sunitinib + Pemetrexed; first compound 0.06325 µM
  relative viability: 1.12
Sunitinib + Pemetrexed; first compound 0.2 µM
  relative viability: 0.915
Sunitinib + Pemetrexed; first compound 0.6325 µM
  relative viability: 0.858
Sunitinib + Pemetrexed; first compound 2 µM
  relative viability: 0.999
Sunitinib + Decitabine; first compound 0.02 µM
  relative viability: 0.594
Sunitinib + Decitabine; first compound 0.06325 µM
  relative viability: 0.675
Sunitinib + Decitabine; first compound 0.2 µM
  relative viability: 0.735
Sunitinib + Decitabine; first compound 0.6325 µM
  relative viability: 0.719
Sunitinib + Decitabine; first compound 2 µM
  relative viability: 0.717
Sunitinib + Vorinostat; first compound 0.02 µM
  relative viability: 0.831
Sunitinib + Vorinostat; first compound 0.06325 µM
  relative viability: 1.04
Sunitinib + Vorinostat; first compound 0.2 µM
  relative viability: 0.927
Sunitinib + Vorinostat; first compound 0.6325 µM
  relative viability: 0.922
Sunitinib + Vorinostat; first compound 2 µM
  relative viability: 1.05
Sunitinib + Olaparib; first compound 0.02 µM
  relative viability: 0.623
Sunitinib + Olaparib; first compound 0.06325 µM
  relative viability: 0.574
Sunitinib + Olaparib; first compound 0.2 µM
  relative viability: 0.75
Sunitinib + Olaparib; first compound 0.6325 µM
  relative viability: 0.616
Sunitinib + Olaparib; first compound 2 µM
  relative viability: 0.641

## NCI-H1623
Sunitinib; 0.02 µM
  relative viability: 0.98
Sunitinib; 0.06325 µM
  relative viability: 0.96
Sunitinib; 0.2 µM
  relative viability: 0.994
Sunitinib; 2 µM
  relative viability: 0.916
Sunitinib + Luminespib; first compound 0.02 µM
  relative viability: 0.545
Sunitinib + Luminespib; first compound 0.06325 µM
  relative viability: 0.545
Sunitinib + Luminespib; first compound 0.2 µM
  relative viability: 0.682
Sunitinib + Luminespib; first compound 0.6325 µM
  relative viability: 0.611
Sunitinib + Luminespib; first compound 2 µM
  relative viability: 0.464
Sunitinib + Foretinib; first compound 0.02 µM
  relative viability: 0.83
Sunitinib + Foretinib; first compound 0.06325 µM
  relative viability: 0.843
Sunitinib + Foretinib; first compound 0.2 µM
  relative viability: 0.955
Sunitinib + Foretinib; first compound 0.6325 µM
  relative viability: 0.977
Sunitinib + Foretinib; first compound 2 µM
  relative viability: 0.872
Sunitinib + OSI-027; first compound 0.02 µM
  relative viability: 0.45
Sunitinib + OSI-027; first compound 0.06325 µM
  relative viability: 0.393
Sunitinib + OSI-027; first compound 0.2 µM
  relative viability: 0.474
Sunitinib + OSI-027; first compound 0.6325 µM
  relative viability: 0.407
Sunitinib + OSI-027; first compound 2 µM
  relative viability: 0.358
Sunitinib + Tozasertib; first compound 0.02 µM
  relative viability: 0.461
Sunitinib + Tozasertib; first compound 0.06325 µM
  relative viability: 0.434
Sunitinib + Tozasertib; first compound 0.2 µM
  relative viability: 0.446
Sunitinib + Tozasertib; first compound 0.6325 µM
  relative viability: 0.488
Sunitinib + Tozasertib; first compound 2 µM
  relative viability: 0.369
Sunitinib + Dasatinib; first compound 0.02 µM
  relative viability: 0.612
Sunitinib + Dasatinib; first compound 0.06325 µM
  relative viability: 0.507
Sunitinib + Dasatinib; first compound 0.2 µM
  relative viability: 0.574
Sunitinib + Dasatinib; first compound 0.6325 µM
  relative viability: 0.58
Sunitinib + Dasatinib; first compound 2 µM
  relative viability: 0.543
Sunitinib + Phenformin; first compound 0.02 µM
  relative viability: 0.649
Sunitinib + Phenformin; first compound 0.06325 µM
  relative viability: 0.499
Sunitinib + Phenformin; first compound 0.2 µM
  relative viability: 0.581
Sunitinib + Phenformin; first compound 0.6325 µM
  relative viability: 0.675
Sunitinib + Phenformin; first compound 2 µM
  relative viability: 0.49
